Test results taken from ChEMBL document CHEMBL3044603, “In search of new herbicidal inhibitors of the non-mevalonate pathway” (Pest Manag Sci, 2013).
Calls of active or inactive are those of the source. No cut-off for these calls is given here.

Tests used:
Lemna minor [1] = assay: Herbicidal activity against Lemna minor (common duckweed) assessed as growth inhibition at 56 mg/l measured for 6 days by picture analysis relative to control; assay type: functional, organism-based
Lemna minor [2] = assay: Herbicidal activity against Lemna minor (common duckweed) assessed as decrease in chlorophyll fluorescence at 56 mg/l measured for 4 days by picture analysis relative to control; assay type: functional, organism-based
[3] = molecular target: T1, 4-diphosphocytidyl-2-C-methyl-D-erythritol kinase, chloroplastic/chromoplastic (Solanum lycopersicum, UniProt P93841); assay: Inhibition of Solanum lycopersicum (tomato) IspE
T1 sequence (P93841 whole entry): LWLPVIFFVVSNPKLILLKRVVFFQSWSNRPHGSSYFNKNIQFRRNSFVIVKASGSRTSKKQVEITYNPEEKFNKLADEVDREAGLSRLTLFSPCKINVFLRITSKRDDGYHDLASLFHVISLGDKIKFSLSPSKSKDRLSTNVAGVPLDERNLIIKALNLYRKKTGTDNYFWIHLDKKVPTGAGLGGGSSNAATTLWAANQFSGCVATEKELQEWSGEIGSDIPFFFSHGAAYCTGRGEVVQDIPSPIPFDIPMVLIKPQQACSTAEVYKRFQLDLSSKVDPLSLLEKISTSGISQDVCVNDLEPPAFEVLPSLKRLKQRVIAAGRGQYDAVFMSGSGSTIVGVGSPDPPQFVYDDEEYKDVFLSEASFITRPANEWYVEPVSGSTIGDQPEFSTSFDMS

[4] = molecular target: T2, 1-deoxy-D-xylulose 5-phosphate reductoisomerase, chloroplastic (Arabidopsis thaliana, UniProt Q9XFS9); assay: Inhibition of Arabidopsis thaliana IspC expressed in Escherichia coli after 40 min by spectrophotometric analysis
T2 sequence (Q9XFS9 whole entry): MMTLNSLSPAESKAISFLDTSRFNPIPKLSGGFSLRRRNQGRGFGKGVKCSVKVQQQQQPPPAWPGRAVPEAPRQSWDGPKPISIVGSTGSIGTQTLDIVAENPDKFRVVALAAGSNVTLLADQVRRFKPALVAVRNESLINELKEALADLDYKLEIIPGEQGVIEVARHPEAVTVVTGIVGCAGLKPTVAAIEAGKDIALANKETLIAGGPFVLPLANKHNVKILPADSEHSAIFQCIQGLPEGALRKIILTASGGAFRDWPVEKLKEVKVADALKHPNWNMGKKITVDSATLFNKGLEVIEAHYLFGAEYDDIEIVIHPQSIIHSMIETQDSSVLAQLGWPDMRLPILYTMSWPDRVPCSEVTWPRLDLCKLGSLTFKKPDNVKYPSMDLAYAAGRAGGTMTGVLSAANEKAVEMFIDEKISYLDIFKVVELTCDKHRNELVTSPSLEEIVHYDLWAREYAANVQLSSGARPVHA

[5] = molecular target: T3, 2-C-methyl-D-erythritol 2,4-cyclodiphosphate synthase, chloroplastic (Arabidopsis thaliana, UniProt Q9CAK8); assay: Inhibition of Arabidopsis thaliana IspF expressed in Escherichia coli XL1-Blue after 30 min by spectrophotometric analysis
T3 sequence (Q9CAK8 whole entry): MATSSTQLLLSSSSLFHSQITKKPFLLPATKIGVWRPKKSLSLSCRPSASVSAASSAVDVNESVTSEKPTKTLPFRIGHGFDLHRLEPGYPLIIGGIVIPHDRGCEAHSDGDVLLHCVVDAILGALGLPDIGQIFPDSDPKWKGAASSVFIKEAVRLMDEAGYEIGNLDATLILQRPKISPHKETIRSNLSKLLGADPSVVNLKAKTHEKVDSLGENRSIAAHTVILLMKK

[6] = molecular target: T4, 2-C-methyl-D-erythritol 4-phosphate cytidylyltransferase, chloroplastic (Arabidopsis thaliana, UniProt P69834); assay: Inhibition of Arabidopsis thaliana IspD
T4 sequence (P69834 whole entry): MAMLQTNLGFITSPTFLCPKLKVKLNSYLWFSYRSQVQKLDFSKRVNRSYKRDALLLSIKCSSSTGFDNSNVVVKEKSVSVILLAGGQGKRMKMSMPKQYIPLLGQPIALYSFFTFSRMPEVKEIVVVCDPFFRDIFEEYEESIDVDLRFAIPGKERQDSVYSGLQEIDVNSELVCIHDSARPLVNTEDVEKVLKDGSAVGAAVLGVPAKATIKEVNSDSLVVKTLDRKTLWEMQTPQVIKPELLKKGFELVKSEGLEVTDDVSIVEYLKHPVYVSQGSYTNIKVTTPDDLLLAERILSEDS

[7] = molecular target: T5, 1-deoxy-D-xylulose-5-phosphate synthase, chloroplastic (Arabidopsis thaliana, UniProt Q38854); assay: Inhibition of Arabidopsis thaliana N-terminal GST-tagged DXS expressed in Escherichia coli BL21 GOLD (DE) using glyceraldehydephosphate and pyruvate as substrate after 90 min by spectrophotometric analysis
T5 sequence (Q38854 whole entry): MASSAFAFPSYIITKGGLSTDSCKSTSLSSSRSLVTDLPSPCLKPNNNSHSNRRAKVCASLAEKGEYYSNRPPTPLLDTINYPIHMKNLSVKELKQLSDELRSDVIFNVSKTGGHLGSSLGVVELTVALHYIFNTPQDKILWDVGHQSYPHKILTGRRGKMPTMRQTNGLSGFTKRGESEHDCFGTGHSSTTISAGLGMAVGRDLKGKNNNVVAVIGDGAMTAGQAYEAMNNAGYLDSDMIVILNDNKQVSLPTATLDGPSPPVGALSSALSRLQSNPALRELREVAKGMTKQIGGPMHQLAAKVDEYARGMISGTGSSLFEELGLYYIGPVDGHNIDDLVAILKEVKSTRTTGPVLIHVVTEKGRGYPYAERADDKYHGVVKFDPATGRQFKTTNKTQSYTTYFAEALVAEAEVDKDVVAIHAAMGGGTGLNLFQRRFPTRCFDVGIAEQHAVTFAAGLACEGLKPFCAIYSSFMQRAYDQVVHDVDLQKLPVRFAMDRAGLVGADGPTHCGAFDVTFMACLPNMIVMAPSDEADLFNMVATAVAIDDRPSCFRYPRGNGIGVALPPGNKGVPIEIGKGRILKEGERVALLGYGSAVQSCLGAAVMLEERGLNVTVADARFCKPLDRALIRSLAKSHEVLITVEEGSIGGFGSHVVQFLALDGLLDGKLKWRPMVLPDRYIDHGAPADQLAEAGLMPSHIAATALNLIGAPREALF

[8] = molecular target: T6, 4-diphosphocytidyl-2-C-methyl-D-erythritol kinase (Escherichia coli (strain K12), UniProt P62615); assay: Inhibition of Escherichia coli IspE by spectrophotometric analysis
T6 sequence (P62615 whole entry): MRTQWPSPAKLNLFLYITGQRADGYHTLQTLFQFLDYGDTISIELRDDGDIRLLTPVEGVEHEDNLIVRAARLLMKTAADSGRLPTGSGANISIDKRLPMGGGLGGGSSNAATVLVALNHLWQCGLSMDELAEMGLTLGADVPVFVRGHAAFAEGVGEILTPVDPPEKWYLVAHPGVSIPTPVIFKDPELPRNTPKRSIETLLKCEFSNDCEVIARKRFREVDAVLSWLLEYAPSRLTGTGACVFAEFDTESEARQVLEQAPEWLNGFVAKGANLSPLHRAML

IC50 [7]	SMILES	growth inhibition (GI) (Lemna minor [1])	Activity (Lemna minor [2])	other results
33 µM	O=C(O)c1ccc(-c2ccc(/C=N/Nc3nc4ccccc4s3)o2)cc1	inactive	inactive	–
32 µM	COc1ccc(-c2onc(C(F)(F)F)c2-c2ccc(Br)cc2)c(O)c1	Active	Active	–

Further lines, the molecule ahead of its results:

SMILES	IC50 [7]	growth inhibition (GI) (Lemna minor [1])	Activity (Lemna minor [2])	other results
Oc1c(Cc2ccccc2)c(Cl)nc2ncnn12	–	Active	Active	–
NC1=N/C(=N\NC(=O)Cc2cccc3ccccc23)c2ccccc21	–	inactive	inactive	IC50 [3]: 54 µM
CCC1(C)Cc2c(sc3nc(SC)nc(O)c23)CS1 (configuration not stated)	–	inactive	inactive	IC50 [4]: 59 µM
NC1=N/C(=N\NC(=O)c2cc(Cl)ccn2)c2ccc3ccccc3c21	–	Active	Active	IC50 [3]: 7.2 µM
CCOC(=O)C1=C(C)N=c2s/c(=C\c3cc(Br)c(O)c(Br)c3)c(=O)n2C1c1ccc(OC)cc1 (configuration not stated)	–	–	–	IC50 [5]: 3.2 µM
COc1ccc2nc(NC(=O)c3cc(-c4ccccc4O)n[nH]3)sc2c1	–	inactive	inactive	IC50 [6]: 1.8 µM
CC1(C)C(=O)ON(Cc2ccccc2Cl)C1=O [KETOCLOMAZONE]	0.08 µM	–	–	–
COc1ccc2nc(NC(=O)COc3ccc(-c4ccccc4)cc3)sc2c1	–	inactive	inactive	IC50 [6]: 6.3 µM
N#Cc1cnn2c(O)c(Cc3ccccc3)c(Cl)nc12	–	–	–	IC50 [6]: 0.035 µM
CCOc1ccc(-c2onc(C(F)(F)F)c2-c2ccc(OC)cc2)c(O)c1	61 µM	Active	Active	–
Nc1ccn([C@@H]2O[C@H](CNC(=O)CCc3nc4ccccc4[nH]3)[C@@H](O)[C@H]2O)c(=O)n1	–	–	–	IC50 [8]: 1.7 µM
COc1ccc(/C=N/Nc2nc3ccccc3[nH]2)cc1OCc1ccccc1	49 µM	inactive	inactive	–
CC(C)Nc1nc(Nc2ccccc2)nc(Cl)c1-c1c(F)cccc1Cl	–	inactive	inactive	IC50 [4]: 34 µM
O=CN(O)CCCP(=O)(O)O [FOSMIDOMYCIN]	–	–	–	IC50 [4]: 0.1 µM
